# According to the supplement of paper PMC10331698:
# ± gives the standard deviation of the averaged measurements.
# Experiments:
# Experiment in all cases: level (log10 ratio to DMSO vehicle control); higher = higher biomarker level / cell amount than vehicle control
# [1] = compound: OCC(F)(F)C(F)(F)C(F)(F)C(F)(F)C(F)(F)C(F)(F)CO [1H,1H,8H,8H-Perfluorooctane-1,8-diol] (in DMSO)
# Protocol: (§1)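 BioMAP Diversity Plus panel of 12 human primary cell co-culture systems (3C, 4H, LPS, SAg, BT, BF4T, BE3C, CASM3C, HDF3CGF, KF3CT, MyoF, Mphg). Compounds were added 1 h before stimulation and left for 24 h (MyoF 48 h; BT 72 h for soluble read-outs or 6 d for IgG). Biomarkers were read by ELISA, cytotoxicity by SRB, PBMC viability and proliferation by Alamar Blue. Each well value was divided by the mean of 8 DMSO control wells on the same plate and log10 transformed; duplicate blinded samples were tested at 4 concentrations.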
# [2] = compound: NS(=O)(=O)C(F)(F)C(F)(F)C(F)(F)C(F)(F)C(F)(F)C(F)(F)C(F)(F)C(F)(F)F [Perfluorooctanesulfonamide] (in DMSO)
# Protocol: as §1
# Perfluorononanoic acid = compound: O=C(O)C(F)(F)C(F)(F)C(F)(F)C(F)(F)C(F)(F)C(F)(F)C(F)(F)C(F)(F)F [Perfluorononanoic acid] (in DMSO)
# Protocol: as §1
# [3] = compound: O=C(O)C(F)(OC(F)(F)C(F)(OC(F)(F)C(F)(OC(F)(F)C(F)(F)C(F)(F)F)C(F)(F)F)C(F)(F)F)C(F)(F)F [Perfluoro-(2,5,8-trimethyl-3,6,9-trioxadodecanoic)acid] (in DMSO)
# Protocol: as §1
# [4] = compound: C=C(C)C(=O)OCCC(F)(F)C(F)(F)C(F)(F)C(F)(F)C(F)(F)C(F)(F)C(F)(F)C(F)(F)F [8:2 Fluorotelomer methacrylate] (in DMSO)
# Protocol: as §1
# [5] = compound: OCC(F)(F)C(F)(F)C(F)(F)C(F)F [1H,1H,5H-Perfluoropentanol] (in DMSO)
# Protocol: as §1
# [6] = compound: O=C(O)C(F)(F)C(F)(F)C(F)(F)OC(F)(F)F [Perfluoro(4-methoxybutanoic) acid] (in DMSO)
# Protocol: as §1
# [7] = compound: O=C(O)C(F)(F)OC(F)(F)C(F)(F)OC(F)(F)C(F)(F)OC(F)(F)C(F)(F)C(F)(F)C(F)(F)F [Perfluoro-3,6,9-trioxatridecanoic acid] (in DMSO); conditions: 6700 nM
# Protocol: as §1
Test System,level (log10) ([1]; 6700 nM),level (log10) ([1]; 20000 nM),level (log10) ([1]; 60000 nM),level (log10) ([2]; 6700 nM),level (log10) ([2]; 20000 nM),level (log10) (Perfluorononanoic acid; 6700 nM),level (log10) (Perfluorononanoic acid; 20000 nM),level (log10) ([3]; 1100 nM),level (log10) ([3]; 3300 nM),level (log10) ([3]; 10000 nM),level (log10) ([4]; 6700 nM),level (log10) ([4]; 20000 nM),level (log10) ([5]; 6700 nM),level (log10) ([5]; 20000 nM),level (log10) ([5]; 60000 nM),level (log10) ([6]; 6700 nM),level (log10) ([6]; 20000 nM),level (log10) ([6]; 60000 nM),level (log10) [7]
lMphg:CCL2/MCP-1,-0.017 ± 0.0071,-0.005 ± 0.0042,0.008 ± 0.031,-0.032 ± 0.016,-0.0485 ± 0.046,0.0105 ± 0.0064,0.0325 ± 0.03,0.0025 ± 0.012,-0.0095 ± 0.0078,-0.0125 ± 0.018,-0.032,-0.012 ± 0.014,-0.0185 ± 0.00071,0.008 ± 0.02,0.0075 ± 0.012,-0.0195 ± 0.026,-0.0075 ± 0.029,0.0265 ± 0.00071,0.001 ± 0.014
lMphg:CCL3/MIP-1alpha,-0.023 ± 0.0014,-0.016 ± 0.0085,0.018 ± 0.025,-0.003 ± 0.016,0.023 ± 0.0099,0.004 ± 0.0028,0.0175 ± 0.0021,0.0465 ± 0.019,-0.003 ± 0.05,0.039 ± 0.041,0.0075 ± 0.039,0.028 ± 0.065,-0.012 ± 0.024,-0.011 ± 0.027,0.0095 ± 0.0078,-0.0355 ± 0.035,-0.038 ± 0.024,-0.015 ± 0.021,-0.0245 ± 0.019
lMphg:CD40,-0.0015 ± 0.018,-0.028 ± 0.013,-0.0405 ± 0.0078,-0.0365 ± 0.016,-0.0925 ± 0.0092,0.002 ± 0.013,-0.03 ± 0.03,0.019 ± 0.057,0.026 ± 0.076,-0.0195 ± 0.036,-0.0215 ± 0.029,-0.05 ± 0.052,0.0015 ± 0.023,-0.012 ± 0.016,0.007 ± 0.02,-0.014 ± 0.024,-0.027 ± 0.033,-0.0375 ± 0.03,-0.0205 ± 0.013
lMphg:CD62E/E-Selectin,-0.0195 ± 0.028,-0.004 ± 0.013,-0.0075 ± 0.0064,-0.118 ± 0.041,-0.125 ± 0.0057,0.0125 ± 0.035,0.0365 ± 0.00071,0.002 ± 0.0014,-0.03 ± 0.0028,-0.0275 ± 0.026,0.0085 ± 0.015,0.02 ± 0.014,-0.006 ± 0.017,0.002 ± 0.014,0.02 ± 0.016,-0.0175 ± 0.047,-0.0265 ± 0.057,-0.0225 ± 0.054,-0.025 ± 0.061
lMphg:CD69,-0.0165 ± 0.036,-0.024 ± 0.025,0.001 ± 0.038,-0.0435 ± 0.052,-0.11 ± 0.037,-0.0165 ± 0.069,0.0125 ± 0.032,-0.02 ± 0.0099,-0.017 ± 0.0042,-0.008 ± 0.0014,-0.041 ± 0.037,-0.041,-0.039 ± 0.031,0.0325 ± 0.019,0.034 ± 0.028,-0.0165 ± 0.047,-0.0145 ± 0.071,0.005 ± 0.099,-0.056 ± 0.083
lMphg:CD106/VCAM-1,-0.024 ± 0.041,-0.0125 ± 0.033,-0.003 ± 0.048,0.006 ± 0.014,0.0365 ± 0.0021,0.001 ± 0.04,-0.005 ± 0.02,0.001 ± 0.0014,0.003 ± 0.021,0.0015 ± 0.044,-0.0245 ± 0.0035,-0.0315 ± 0.016,-0.0035 ± 0.021,0.0165 ± 0.037,0.0145 ± 0.018,0.0015 ± 0.0035,-0.0015 ± 0.022,-0.0085 ± 0.021,-0.017 ± 0.011
lMphg:CXCL8/IL-8,-0.0085 ± 0.074,-0.03 ± 0.028,0.011 ± 0.034,0.004 ± 0.0042,0.124 ± 0.019,0.093 ± 0.03,0.186 ± 0.06,0.0035 ± 0.04,0.005 ± 0.02,0.0375 ± 0.033,0.0355 ± 0.023,0.085 ± 0.016,0.018 ± 0.017,-0.0005 ± 0.019,0.035 ± 0.0028,0.001 ± 0.04,0.005 ± 0.011,0.083 ± 0.037,0.126 ± 0.016
lMphg:IL-1alpha,-0.011 ± 0.041,-0.012 ± 0.0085,0.0855 ± 0.047,0.053 ± 0.05,0.228 ± 0.028,-0.017 ± 0.017,0.0495 ± 0.0035,-0.0225 ± 0.021,-0.026 ± 0.016,0.0045 ± 0.0078,-0.007 ± 0.028,0.0165 ± 0.073,-0.055 ± 0.017,-0.0185 ± 0.005,0.011 ± 0.044,-0.051 ± 0.018,-0.0345 ± 0.029,0.027 ± 0.068,0.013 ± 0.025
lMphg:M-CSF,-0.015 ± 0.013,-0.013 ± 0.016,0.013 ± 0.067,-0.0445 ± 0.0092,-0.029 ± 0.021,-0.0215 ± 0.0064,-0.006 ± 0.031,-0.0095 ± 0.00071,-0.0065 ± 0.022,0.0145 ± 0.021,-0.013 ± 0.018,-0.0365 ± 0.022,0.0115 ± 0.016,-0.0125 ± 0.0064,0.0175 ± 0.021,-0.0095 ± 0.0078,-0.019 ± 0.011,-0.0115 ± 0.0064,0.023 ± 0.0071
lMphg:SRB,-0.0125 ± 0.0078,-0.0115 ± 0.018,-0.0245 ± 0.00071,-0.013,-0.052 ± 0.0085,0.008 ± 0.0042,0.0105 ± 0.021,-0.005,-0.0115 ± 0.0092,-0.005 ± 0.0042,-0.0035 ± 0.0035,-0.0055 ± 0.0064,-0.0065 ± 0.005,-0.0045 ± 0.0064,0.006 ± 0.0014,-0.008 ± 0.0099,-0.0135 ± 0.0035,-0.0055 ± 0.016,-0.014 ± 0.0085
lMphg:SRB-Mphg,-0.053 ± 0.079,-0.031 ± 0.014,-0.018 ± 0.027,-0.0005 ± 0.0064,-0.027 ± 0.016,-0.0205 ± 0.035,-0.062 ± 0.081,-0.0035 ± 0.00071,-0.0135 ± 0.0092,0.014 ± 0.014,0.0085 ± 0.011,-0.009 ± 0.031,-0.012 ± 0.023,-0.0605 ± 0.057,0.0145 ± 0.033,-0.013 ± 0.02,0.0125 ± 0.012,0.0115 ± 0.0021,0.0035 ± 0.0035
lMphg:sIL-10,-0.175 ± 0.042,-0.17 ± 0.037,-0.216 ± 0.0057,-0.068 ± 0.021,-0.169 ± 0.025,-0.0035 ± 0.026,-0.093 ± 0.044,-0.0195 ± 0.0021,-0.0265 ± 0.084,-0.05 ± 0.072,-0.107 ± 0.049,-0.116 ± 0.0021,-0.0455 ± 0.069,-0.012 ± 0.025,-0.014 ± 0.027,0 ± 0.03,-0.017 ± 0.0014,-0.0345 ± 0.023,-0.0585 ± 0.00071
